Results on two molecules are retold here after US6673798B2, “PDGF receptor kinase inhibitory compounds, their preparation, purification and pharmaceutical compositions including same” (Yissum Research Development Company of the Hebrew …, priority 1999, dated 2004).

The subject of series [1] is PAEC/KDR cells. The experiment in a line: Proliferation of KDR transfected PAEC cells ([3H]thymidine incorporation). It counts as cell-based, porcine. The note with it: Sus scrofa, read-out: IC50 (50% inhibition of proliferation) KDR. On the procedure:
(§1) Porcine aortic endothelial cells (PAEC), stably transfected with either PDGF-receptor (PAEC/PDGFβR cells, kindly provided by Dr. L. Claesson-Welsh, Uppsala, Sweden) or VEGF-receptor KDR (PAEC/KDR), respectively, were used as previously described. Cells were routinely cultured in Ham's F-12 medium supplemented with geneticin (0.4 mg/ml) and 10% FCS.
(§2) Assessment of cell proliferation ([^3H]thymidine incorporation assay): PAEC/KDR and PAEC/PDGFR cells, grown in Ham's F12 medium containing 10% FCS were seeded sparsely in 12 well culture dishes. After 24 hours, cells were washed two times with Ham's F12 medium containing 1% FCS and incubated for additional 48 hours with one renewal of medium. Cells were incubated for 15 minute with different concentrations of AG2033 (0.1; 1 and 10 μM) or with the solvent DMSO alone, stimulated with 3 ng/ml VEGF or with 15 ng/ml PDGF-BB for 20 hours, followed by addition of 0.25 μCi of [^3H]-thymidine/ml (Amersham) for two hours. High molecular weight [^3H]-radioactivity was precipitated using 5% trichloroacetic acid at 4° C. for 30 minutes. After two washes with ice-cold H2O, [^3H]-radioactivity was solubilized in 1 M NaOH (400 μl/well) at room temperature for 8 minutes, neutralized by the addition of 2 M HCL (400 μl/well), and quantitated by liquid scintillation counting. […]

Series [2] has as its system PAEC/KDR cells. The experiment in a line: Migration of KDR transfected PAEC cells toward VEGF (Boyden chamber). It counts as cell-based, porcine. The note with it: Sus scrofa, VEGF 10 ng/ml, read-out: IC50 (50% inhibition of migration) KDR. On the procedure:
(§3) Assessment of cell migration (Chemotaxis assay): The chemotactic response of HCASMC, PAEC/KDR and PAEC/PDGFR cells was assessed using the modified Boyden chamber (Neuro Probe, Inc.) and collagen-coated polycarbonate filters (Nucleopore) with pore diameters of 8 μm as previously described. Briefly, PAEC/KDR and PAEC/PDGFR cells were cultivated and assayed in Ham's F12 medium containing 10% FCS. HCASMC were cultivated in SmGM-2 (clonetics) and assayed in SmBM-WM containing 10% FCS and 0.1% BSA. To the medium in the lower part of the Boyden chamber, either VEGF or PDGF-BB (10 ng/ml, respectively) were added. AG2033 was added to both upper and lower chamber parts. Suspended cells were given 4 hours for migration, after a preincubation period of 15 minute in AG2033. The number of cells that migrated without PDGF-BB or VEGF stimulation was referred to as 100% migration (chemokinesis). The assay was performed in triplicate, and five medium-power fields were counted per well using a light microscope (Jenalab).
(§4) Evaluation of PDGFβR or KDR stably transfected PAEC cells migration toward the respective growth factors, PDGD-BB and VEGF (10 ng/ml, respectively), in the presence of the purified AG2033 isomer, was conducted in a Boyden chamber (see experimental section, above). […]

The subject of series [3] is PAEC/PDGFR cells. The experiment in a line: Migration of PDGFβR transfected PAEC cells toward PDGF-BB (Boyden chamber). In kind it is cell-based, porcine. The note with it: Sus scrofa, PDGF-BB 10 ng/ml, read-out: IC50 (50% inhibition of migration) PDGFβR. On the procedure: as §3, §4
Series [4] deals with PAEC/PDGFR cells. The experiment in a line: Proliferation of PDGFβR transfected PAEC cells ([3H]thymidine incorporation). It counts as cell-based, porcine. The note with it: Sus scrofa, read-out: IC50 (50% inhibition of proliferation) PDGFβR. On the procedure: as §1, §2
A further series deals with T1, PDGFβR (Mus musculus, UniProt P05622).
T1 construct: A preparation of purified PDGFR from Swiss 3T3 cell membranes was used; endogenous in cells
The experiment in a line: PDGF-induced PDGFβR autophosphorylation in intact Swiss 3T3 cells (FIG. 8). The note with it: at 1 μM. In kind it is cell-based. On the procedure:
Kinase reactions, using an isolated PDGFβR preparation, in the presence of 0.03-3 μM tyrphostin, were conducted, utilizing [γ-^32P]ATP as probe. Densitometric evaluation, relative to control lacking the tyrphostin inhibitor (100%), results in the percent autokinase activity, presented in Table 8 and in the dose-response curves for the purified transoid isomers AG2033 (FIG. 6) and AG2043 (FIG. 7). Further comparison between the resulting autoradiogrms for each pair of geometrical isomers AG2033 and AG2034 (upper panel); AG2043 and AG2044 (lower panel), for their inhibitory activity towards PDGF-induced PDGFβR autophosphorylation (concentration range: 0.1-10 μM) in intact cells is presented in FIG. 8. […] Similar potency relation exists between the AG2043 and AG2044 isomers.

Another series has as its system porcine SMC. Put plainly: Inhibition of SMC proliferation and recovery (cell count). In kind it is cell-based. The note with it: 10 μM. On the procedure: Smooth muscle cells (SMC) were obtained under aseptic conditions from porcine abdominal aortas. Each artery was cut open and the endothelial surface mechanically scraped. The vessels were then cut into 2 mm^2 fragments which were placed in culture dishes with Dulbecco's modified Eagle's medium (DMEM) supplemented with 15% (v/v) fetal calf serum (FCS), 100 u/ml penicillin, 100 μg/ml streptomycin, and […]. The tissue fragments were then placed in an incubator at 37° C. under 9% CO2 atmosphere until SMC outgrowth was detected (typically within 3-7 days). […] For experiments testing the effect of tyrphostins on growth inhibition and recovery (see below), SMC from passages 1-3 were replated in 15 mm wells pretreated with 3 μg/cm^2 fibronectin (Biological Industries, Kibbutz Beit Haemek, Israel) at 15,000 cells/well.
Inhibition of cell proliferation and recovery: Monolayer cell growth inhibition and recovery experiments were repeated 3 or 4 times. Each experiment was performed in triplicate. Approximately 15,000 cells (SMC or PAEC) in 1 ml of culture medium supplemented with either 15% FCS (SMC) or 10% FCS (PAEC) were seeded on day 0 in 15 mm-wells precoated with fibronectin (SMC) or uncoated (PAEC). Cultures were treated with 10 μM of the following tyrphostin compounds: AG2033, AC2034, AG2043 and AG2044 (for SMC) or AG2033 (for PAEC) dissolved in 0.1% DMSO on days 1 and 3. On day 7, cultures were washed and the cells allowed to recover. Typically cells were counted on days 3 and 6 for inhibition, and on day 13 for recovery. The medium supplemented with serum (DMEM for SMC and Ham's F12 for PAEC) was changed every other day throughout the experiment.
Cells were grown in the presence of the specified tyrphostins and were counted on days 3, 6 and 13 in culture. On day 7 the cultures were washed and the cells allowed to recover. […] The inhibitory effect of all three compounds was reversible, and the cells resumed normal growth response as soon as the treatment with the tyrphostins was withdrawn.

T1 sequence (P05622 32-1098): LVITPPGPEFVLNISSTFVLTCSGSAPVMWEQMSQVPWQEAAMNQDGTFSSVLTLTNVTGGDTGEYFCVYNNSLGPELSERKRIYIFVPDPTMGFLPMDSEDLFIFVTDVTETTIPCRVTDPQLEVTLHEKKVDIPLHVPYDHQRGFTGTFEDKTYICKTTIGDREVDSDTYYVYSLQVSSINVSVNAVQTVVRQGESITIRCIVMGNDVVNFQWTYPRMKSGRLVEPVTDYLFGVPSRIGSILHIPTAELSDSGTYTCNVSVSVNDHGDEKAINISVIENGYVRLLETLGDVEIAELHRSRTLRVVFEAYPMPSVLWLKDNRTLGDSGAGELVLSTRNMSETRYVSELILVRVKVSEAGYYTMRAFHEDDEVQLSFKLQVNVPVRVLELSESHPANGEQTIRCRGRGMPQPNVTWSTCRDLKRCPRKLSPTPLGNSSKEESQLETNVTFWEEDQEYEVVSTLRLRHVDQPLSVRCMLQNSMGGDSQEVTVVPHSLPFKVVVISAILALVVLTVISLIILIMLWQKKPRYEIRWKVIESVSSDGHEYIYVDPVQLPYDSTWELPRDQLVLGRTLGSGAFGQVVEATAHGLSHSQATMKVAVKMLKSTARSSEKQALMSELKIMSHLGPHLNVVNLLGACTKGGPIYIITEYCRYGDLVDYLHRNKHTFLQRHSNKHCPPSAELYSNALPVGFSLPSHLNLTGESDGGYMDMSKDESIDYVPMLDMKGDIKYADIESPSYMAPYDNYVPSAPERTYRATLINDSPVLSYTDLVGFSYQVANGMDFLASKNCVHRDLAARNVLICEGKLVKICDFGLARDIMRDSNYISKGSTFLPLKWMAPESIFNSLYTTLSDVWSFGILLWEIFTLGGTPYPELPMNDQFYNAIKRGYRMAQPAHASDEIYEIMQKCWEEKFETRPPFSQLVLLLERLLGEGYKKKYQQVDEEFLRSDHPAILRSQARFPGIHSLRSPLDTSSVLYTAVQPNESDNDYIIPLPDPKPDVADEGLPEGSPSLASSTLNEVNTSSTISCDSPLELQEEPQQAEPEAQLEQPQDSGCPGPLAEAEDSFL

As to `Cc1nc2cc3nc(-c4ccccc4)cnc3cc2n1C` [AG2033, 1,2-dimethyl-6-phenyl imidazolo[5,4-g]quinoxaline], the melting point came to 275 °C. The IC50 with PAEC/KDR cells [1] is over 10 µM. Besides, the IC50 in the series with PAEC/KDR cells [2] was over 10 µM. Besides, the IC50 in the series with PAEC/PDGFR cells [3] is 5 µM. In addition, the IC50 with PAEC/PDGFR cells [4] came to 2.5 µM. Also, on PDGFβR, the “inhibitory activity towards PDGF-induced PDGFβR autophosphorylation in intact cells” value is “marked inhibitory activity”.

`Cc1nc2cc3nc(-c4cccs4)cnc3cc2n1C` [AG2043, 1,2-dimethyl-6-(2-thiophene) imidazolo[5,4-g]quinoxaline]: the “toxic effect on the cells” value with porcine SMC (SMC) is listed as “without having a substantial toxic effect”. In addition, the “mean reduction in SMC count by day 3” value with porcine SMC (compared to DMSO treated control cells) stood at 46%. Besides, the “reversibility of the inhibitory effect on SMC proliferation” value in the series on porcine SMC (cultures washed on day 7, recovery counted day 13) is “completely reversible”.
